Laboratory results: US20250186448A1 (Mezzion Pharma Co., Ltd., priority 2021, published 2025)
Values joined by “and” are separate entries in the source; they are usually repeats but may differ in a detail not shown here. Equal values may be shown once.

How the values were obtained:
[1] = tested on: adolescents with Single Ventricle Heart Disease who underwent Fontan palliation; assay: FALD study (FUEL Extension): Enhanced Liver Fibrosis (ELF) score from serum HA, PIIINP, TIMP-1; format: in vivo, human; design: key to Baseline ELF, Mean (SD) / ELF Score, Post Baseline: ELF score: <7.7 none/mild, 7.7-9.8 moderate, 9.8-11.3 severe, >11.3 cirrhosis
Text: The FALD study, ClinicalTrials.gov Identifier: NCT03430583, which is incorporated herein by reference in its entirety, was an open-label extension study that integrated with the FUEL Extension Trial. […] Both the U− cohort and the U+ cohort had liver stiffness measured by ultrasound and MR elastography (where available), and ELF biomarkers analyzed, as described above. […] The Enhanced Liver Fibrosis (ELF) scores were based on the serum levels of hyaluronic acid (HA), amino-terminal propeptide of type III collagen (PIIINP), and tissue inhibitor of metalloproteinase-1 (TIMP-1). Testing was performed by the FUEL-OLE Central Laboratory using the serum samples. In accordance with prior studies, we assigned those patients with scores of <7.7 to the no-fibrosis or mild fibrosis group, 7.7-9.8 to the moderate fibrosis group, 9.8-11.3 to the severe fibrosis group, and >11.3 to the cirrhosis group. The primary outcome measure of the FALD study was the range of liver stiffness in adolescents with Single Ventricle Heart Disease who underwent Fontan palliation. Secondary outcome measures included the effect of drug therapy on liver stiffness, and the effect of drug therapy on Enhanced Liver Fibrosis (ELF) score. See Clinical Trials.gov identifier NCT03430583, at p. 3. It is to be understood that present invention contemplates udenafil drug products that are therapeutically equivalent to the udenafil drug products of the present invention.

[2] = tested on: adolescents with Single Ventricle Heart Disease who underwent Fontan palliation; assay: FALD study: liver stiffness by ultrasound shear wave elastography (SWE); format: in vivo, human; design: USWE, Post Baseline: unit not given beside the values; USWE, Change from Baseline: unit not given here; details: Cohort U− (udenafil for 52 weeks), individual subject
Text: Ultrasound SWE uses one or more acoustic radiation force impulses (ARFI) or “push pulses” to generate shear waves in the tissue of interest. These shear waves can be tracked and their speed measured, with increasing tissue stiffness associated with increasing tissue shear wave speed. Shear wave speed can be mathematically converted to both shear and Young's moduli (in kPa), mechanical properties related to tissue rigidity and elasticity. There are two major forms of ultrasound SWE-“point” and “2D”. Point ultrasound SWE provides a very focal estimate of liver stiffness using a small region-of-interest, wh[…] ultrasound SWE provides a regional color parameteric map (elastogram) of image stiffness and allows measurement over a much larger area of the liver. The FALD study, ClinicalTrials.gov Identifier: NCT03430583, which is incorporated herein by reference in its entirety, was an open-label extension study that integrated with the FUEL Extension Trial. […] Both the U- cohort and the U+ cohort had liver stiffness measured by ultrasound and MR elastography (where available), and ELF biomarkers analyzed, as described above. […] The primary outcome measure of the FALD study was the range of liver stiffness in adolescents with Single Ventricle Heart Disease who underwent Fontan palliation. Secondary outcome measures included the effect of drug therapy on liver stiffness, and the effect of drug therapy on Enhanced Liver Fibrosis (ELF) score. See Clinical Trials.gov identifier NCT03430583, at p. 3. It is to be understood that present invention contemplates udenafil drug products that are therapeutically equivalent to the udenafil drug products of the present invention.

[3] = Cohort U+ & U− Pooled, baseline ELF Cirrhosis (N 17)
[4] = Cohort U+ & U− Pooled, baseline ELF moderate fibrosis (N 20)
[5] = Cohort U+ & U− Pooled, baseline ELF moderate fibrosis (N 20), listed as udenafil
[6] = Cohort U+ & U− Pooled, baseline ELF severe fibrosis (N 36)
[7] = Cohort U+, baseline ELF Cirrhosis (N 9)
[8] = Cohort U+, baseline ELF moderate fibrosis (N 8)
[9] = Cohort U+, baseline ELF severe fibrosis (N 15)
[10] = Cohort U− (udenafil for 52 weeks), individual subject
[11] = Cohort U−, baseline ELF Cirrhosis (N 8)
[12] = Cohort U−, baseline ELF moderate fibrosis (N 12)
[13] = Cohort U−, baseline ELF moderate fibrosis (N 12), listed as udenafil
[14] = Cohort U−, baseline ELF severe fibrosis (N 21)
[15] = FALD, cohort U+ (78 weeks udenafil)

## CCCOc1ccc(S(=O)(=O)NCCC2CCCN2C)cc1-c1nc2c(CCC)nn(C)c2c(=O)[nH]1 (stereo not shown) [Udenafil, udenafil]
[1]; Cohort U+ & U− Pooled, 41/73
  Patients with Improved ELF fibrosis category: 41/73 (56%) Improved
[1]; [3]
  Patients with post baseline ELF score Mild, n (%): 0
  Patients with post baseline ELF score Sev, n (%): 13 (76%)
[1]; Cohort U+ & U− Pooled, baseline ELF Cirrhosis (N 17), listed as udenafil
  Patients with post baseline ELF score Sev, n (%): 6
[1]; [4]
  Patients with post baseline ELF score Mild, n (%): 1 (5%)
  Patients with post baseline ELF score Sev, n (%): 8 (40%)
[1]; [5]
  Patients with post baseline ELF score Mild, n (%): 1
  Patients with post baseline ELF score Sev, n (%): 8
[1]; [6]
  Patients with post baseline ELF score Mild, n (%): 0
  Patients with post baseline ELF score Sev, n (%): 13 (36%)
[1]; Cohort U+ & U− Pooled, baseline ELF severe fibrosis (N 36), listed as udenafil
  Patients with post baseline ELF score Sev, n (%): 8
[1]; Cohort U+, 19/32
  Patients with Improved ELF fibrosis category: 19/32 (59%) Improved
[1]; [7]
  Patients with post baseline ELF score Mild, n (%): 0
  Patients with post baseline ELF score Sev, n (%): 7 (78%)
[1]; Cohort U+, baseline ELF Cirrhosis (N 9), listed as udenafil
  Patients with post baseline ELF score Sev, n (%): 7
[1]; [8]
  Patients with post baseline ELF score Mild, n (%): 0
  Patients with post baseline ELF score Sev, n (%): 0
[1]; [9]
  Patients with post baseline ELF score Mild, n (%): 0
  Patients with post baseline ELF score Sev, n (%): 5 (33%)
[1]; Cohort U+, baseline ELF severe fibrosis (N 15), listed as udenafil
  Patients with post baseline ELF score Sev, n (%): 5
[1]; [10]
  ELF Score, % Change from Baseline: −7.61% and −11.19% and −20.06% and −15.92% and 10.85% and 9.365%
  ELF Score, Change from Baseline: −0.78 and −1.22 and −2.03 and −1.85 and 0.97 and 0.9 and 0.26
[1]; Cohort U− (udenafil for 52 weeks), individual subject, Post Baseline visit (52 week)
  ELF Score, Post Baseline: 9.47 and 9.68 and 8.09 and 9.77 and 9.91 and 10.51 and 9.67
[1]; Cohort U−, 22/41
  Patients with Improved ELF fibrosis category: 22/41 (54%) Improved
[1]; [11]
  Patients with post baseline ELF score Mild, n (%): 0
  Patients with post baseline ELF score Sev, n (%): 6 (75%)
[1]; Cohort U−, baseline ELF Cirrhosis (N 8), listed as udenafil
  Patients with post baseline ELF score Sev, n (%): 6
[1]; [12]
  Patients with post baseline ELF score Mild, n (%): 1 (8%)
  Patients with post baseline ELF score Sev, n (%): 8 (67%)
[1]; [13]
  Patients with post baseline ELF score Mild, n (%): 1
  Patients with post baseline ELF score Sev, n (%): 8
[1]; [14]
  Patients with post baseline ELF score Mild, n (%): 0
  Patients with post baseline ELF score Sev, n (%): 8 (38%)
[1]; Cohort U−, baseline ELF severe fibrosis (N 21), listed as udenafil
  Patients with post baseline ELF score Sev, n (%): 8
[1]; FALD, Total
  ELF Percent Change: Week 52-Baseline, Median: −7.2%
  Week 52 ELF, Median: 9.7
[1]; FALD, Total (U+ and U−)
  Baseline ELF, Mean (SD): 10.4
  Week 52 ELF, Mean (SD): 9.8
[1]; FALD, Total, p <0.0001 vs 0
  ELF Percent Change: Week 52-Baseline, Mean (SD): −6.8 (7.69) %
[1]; FALD, cohort U+
  Week 52 ELF, Median: 9.6
[1]; FALD, cohort U+ (6 months udenafil in FUEL before baseline)
  Baseline ELF, Mean (SD): 10.5
[1]; FALD, cohort U+ (6 months udenafil in FUEL before baseline), listed as udenafil
  Baseline ELF, Mean (SD): 10.5
[1]; FALD, cohort U+ (18 months udenafil, 87.5 mg twice daily)
  Week 52 ELF, Mean (SD): 9.7
[1]; FALD, cohort U+ (18 months udenafil, 87.5 mg twice daily), listed as udenafil
  Week 52 ELF, Mean (SD): 9.7
[1]; [15]
  Patients with improved ELF scores: About 94%
  Subjects with a decrease (improvement) in ELF score: all but 2 of 31
[1]; FALD, cohort U+, p <0.0001 vs 0
  ELF Percent Change: Week 52-Baseline, Mean (SD): −8.0 (5.56) %
[1]; FALD, cohort U+, p=0.0001
  Average improvement of ELF score, baseline to week 52: approximately 8%
[1]; FALD, cohort U−
  ELF Percent Change: Week 52-Baseline, Median: −6.1%
  Week 52 ELF, Median: 9.9
[1]; FALD, cohort U− (1 year udenafil, 87.5 mg twice daily)
  Week 52 ELF, Mean (SD): 9.8
[1]; FALD, cohort U− (1 year udenafil, 87.5 mg twice daily), listed as udenafil
  Week 52 ELF, Mean (SD): 9.8
[1]; FALD, cohort U− (52 weeks udenafil), of 40 subjects
  Subjects with a decrease (improvement) in ELF score, number: about 30
[1]; FALD, cohort U− (udenafil-naïve at baseline)
  Baseline ELF, Mean (SD): 10.3
[1]; FALD, cohort U− (udenafil-naïve at baseline), listed as udenafil
  Baseline ELF, Mean (SD): 10.3
[1]; FALD, cohort U−, based on paired data
  Average improvement of ELF score, baseline to week 52: about 5.9%
[1]; FALD, cohort U−, p 0.0001 vs 0
  ELF Percent Change: Week 52-Baseline, Mean (SD): −5.9 (8.98) %
[1]; FALD, overall (U+ and U−)
  Subjects with an improved ELF score: about 84%
[2]
  USWE, % Change from Baseline: −2.439% and −7.692% and 6.011% and 20.92% and −0.9302% and −22.07% and −1.22%
  USWE, Change from Baseline: −0.06 and −0.13 and 0.11 and 0.41 and −0.02 (2×) and −0.49 and 0.09
[2]; Post Baseline visit (52 week)
  USWE, Post Baseline: 2.4 and 1.56 and 1.94 and 2.37 and 2.13 and 1.73 and 1.62 and 2.08
